Experimental data reported in patent US8609870B2, “Treating various disorders using TrkB agonists” (Emory University, priority 2008, dated 2013).
Blank lines part the entries; values can stand above or below the compound they belong to.

Assays:
TrkA = TrkA (Homo sapiens, UniProt P04629); experiment: [3H]-deoxygedunin ligand binding assay, TrkA
[1] = target: TrkB intra-cellular domain (ICD) (Homo sapiens, UniProt Q16620); experiment: [3H]-deoxygedunin ligand binding assay, TrkB ICD; conditions: increasing concentrations of radioligand
Method: (§1) Purified TrkB ECD or ICD proteins (10 μg/each) were incubated with different [^3H-deoxygedunin] in 1 ml binding buffer (0.05 M Na/K phosphate buffer (pH 7.1), 200 mM NaCl) (1 nM [^3H]deoxygedunin˜82300 cpm) at 4° C. for 10 minutes. After incubation, the reaction mixture was loaded on filter paper and washed with 3×5 ml Tris buffer (100 mM Tris, pH 7.1). The dried filter paper was put into a small vial and subjected to liquid scintillation counter analysis. The value of the dissociation constant and the number of sites were obtained from Scatchard plots by using the equation r/[L]free=n/Kd−r/Kd, where r is the ratio of the concentration of bound ligand to the total protein concentration and n is the number of binding sites.
To determine whether an identified active compound physically and directly binds to the TrkB receptor, in vitro binding assays can be conducted with purified TrkB extracellular domain (ECD) and intracellular domain (ICD) recombinant proteins. Purified TrkB ECD and ICD (10 μg of each) are incubated with different concentrations of ^3H-labeled identified active compound in 1 ml of binding buffer (0.05M Na/K phosphate buffer, pH 7.1, 200 mM NaCl) at 4° C. for 10 minutes. After the incubation, the reaction mixture is loaded on filter paper. […]

[2] = target: TrkB extra-cellular domain (ECD) (Homo sapiens, UniProt Q16620); experiment: [3H]-deoxygedunin ligand binding assay, TrkB ECD (Scatchard plot); conditions: increasing concentrations of radioligand
Method: as §1
To determine whether an identified active compound physically and directly binds to the TrkB receptor, in vitro binding assays can be conducted with purified TrkB extracellular domain (ECD) and intracellular domain (ICD) recombinant proteins. Purified TrkB ECD and ICD (10 μg of each) are incubated with different concentrations of ^3H-labeled identified active compound in 1 ml of binding buffer (0.05M Na/K phosphate buffer, pH 7.1, 200 mM NaCl) at 4° C. for 10 minutes. After the incubation, the reaction mixture is loaded on filter paper. The mixture is washed three times with Tris buffer (100 mM Tris, pH 7.1), and the dried filter paper is put into a small vial and subjected to liquid scintillation counter analysis. […] The value of the dissociate constant and the number of sites will then be obtained from Scatchard plots using the equation r/[L]free=n/Kd−r/Kd, where r is the ratio of the concentration of bound ligand to the total protein concentration and n is the number of binding sites.
To determine whether deoxygedunin binds the intra-cellular domain (ICD) or extra-cellular domain (ECD) of the TrkB receptor, ligand binding assays with [^3H]-deoxygedunin were performed. […] The coprecipitated HA-TrkB was also prominently tyrosine phosphorylated (see FIG. 14, 3rd panel).

TrkB = target: T1, TrkB (Homo sapiens, UniProt Q16620); experiment: TrkB dimerization assay (GST pull-down, transfected HEK293 cells); assay type: cell-based
T1 construct: expressed in transfected cells; host or cells: HEK293
Method: HEK293 cells transfected with GST-TrkB and HA-TrkA or TrkB were washed once in PBS, and lysed in 1 ml lysis buffer (50 mM Tris, pH 7.4, 150 mM NaCl, 1 mM EDTA, 0.5% Triton X-100, 1.5 mM Na3VO4, 50 mM NaF, 10 mM sodium pyrophosphate, 10 mM sodium β-glycerophosphate, 1 mM phenylmethylsulfonyl fluoride (PMSF), […], […] leupeptin, […] pepstatin A), and centrifuged for 10 minutes at 14,000×g at 4° C. The supernatant was then transferred to a fresh tube and transfected TrkB receptor was pulled down with glutathione beads. The coprecipitated proteins were resolved on SDS-PAGE. The samples were transferred to a nitrocellular membrane, and immunoblotting analysis was performed with a variety of antibodies.
BDNF is known to bind the TrkB receptor and provoke its dimerization (Barbacid, J. Neurobiol., 25:1386-1403, 1994; Klein et al, Cell, 66:395-403, 1991). To explore whether an identified active compound triggers TrkB receptor dimerization, HEK293 cells are cotransfected with GST-TrkB and HA-TrkB or HA-TrkA. The cells then are treated with BDNF or an identified active compound (0.5 μM) for 30 minutes. […]

hippocampal neurons [3] = experiment: Glutamate-triggered apoptosis in hippocampal neurons (MR(DEVD)2 / condensed nuclei); assay type: cell-based; conditions: 0.5 μM preincubated 30 min, then 50 μM glutamate 16 h
Method: To create and test reporter cell lines. In order to identify small molecules that mimic BDNF and activate TrkB, TrkB stably transfected murine cell lines are created. The T48 and T62 cell lines are created by transfecting basal forebrain SN56 cells, which express negligible TrkB, with a TrkB expression construct. To test expression of TrkB, the cells are treated with BDNF, which is predicted to result in strong phosphorylation of Trk-490 and Akt activation in comparison to the TrkA NTR stably expressing T17 cell line indicating expression of TrkB. To test resistance to apoptosis, the SN56 cells and the T48 cell line are either untreated or treated with BDNF, and then are subjected to an apoptotic assay. The apoptotic assay involves treating the cells with 0.75 μM Staurosporine for 9 hours, and 1 hour before completing the experiment, the cells are treated with 10 μM MR (DEVD)2. The cells then are fixed with 4% paraformaldehyde for 15 minutes, washed with phosphate buffered saline (PBS), and incubated with Hoechst 33342 for 10 minutes. Cover slides are washed with PBS, mounted, and then the cells are examined using a fluorescent microscope to see which cells turn red upon caspase cleavage.
To compare the apoptosis inhibitory activity of identified active compounds, the compounds are preincubated with SN56 and T48 cells, and subsequently are subjected to the fluorescent apoptotic assay as described above. To examine whether these identified active compounds promote neuronal survival, hippocampal neurons are prepared and the cultures are pretreated with the identified active compounds for 30 minutes, followed by treatment with 50 μM glutamate for 16 hours.
Using a cell-based screen as described above in Example 1 (based on the anti-apoptotic action of TrkB signaling) and the chemical library from the Spectrum Collection (described above), 66 positive hits were generated, four of which were gedunin derivatives. […] In this assay, neurons with both cleaved caspase (MR (DEVD)2 red cells) and condensed nuclei (DAPI staining) were counted as apoptotic cells. […]

hippocampal neurons [4] = experiment: Oxygen-glucose deprivation (OGD) apoptosis in hippocampal neurons; assay type: cell-based; conditions: apoptotic ratio compared to BDNF and DMSO

Chain of TrkA (P04629 33-796, species assumed): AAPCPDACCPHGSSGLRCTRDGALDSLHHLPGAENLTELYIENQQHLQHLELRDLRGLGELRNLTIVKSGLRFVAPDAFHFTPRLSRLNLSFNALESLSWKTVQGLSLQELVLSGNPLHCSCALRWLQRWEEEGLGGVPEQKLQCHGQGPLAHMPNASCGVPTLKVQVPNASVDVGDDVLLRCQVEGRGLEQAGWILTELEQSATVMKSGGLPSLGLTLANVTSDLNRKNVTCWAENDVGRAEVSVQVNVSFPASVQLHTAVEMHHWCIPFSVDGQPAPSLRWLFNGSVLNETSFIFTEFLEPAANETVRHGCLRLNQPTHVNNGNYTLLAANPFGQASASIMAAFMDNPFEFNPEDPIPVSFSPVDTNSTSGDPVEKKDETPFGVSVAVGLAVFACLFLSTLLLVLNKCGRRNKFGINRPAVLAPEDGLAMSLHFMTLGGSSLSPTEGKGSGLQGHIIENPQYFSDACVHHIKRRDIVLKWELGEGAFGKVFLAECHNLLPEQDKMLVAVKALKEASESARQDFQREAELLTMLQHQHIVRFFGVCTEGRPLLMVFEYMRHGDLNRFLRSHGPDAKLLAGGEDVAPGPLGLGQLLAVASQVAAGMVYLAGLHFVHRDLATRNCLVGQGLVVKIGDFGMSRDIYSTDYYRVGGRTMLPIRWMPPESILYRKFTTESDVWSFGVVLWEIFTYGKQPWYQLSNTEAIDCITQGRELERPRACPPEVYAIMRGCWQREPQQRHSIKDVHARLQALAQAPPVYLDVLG
T1 sequence (Q16620 32-822, species assumed): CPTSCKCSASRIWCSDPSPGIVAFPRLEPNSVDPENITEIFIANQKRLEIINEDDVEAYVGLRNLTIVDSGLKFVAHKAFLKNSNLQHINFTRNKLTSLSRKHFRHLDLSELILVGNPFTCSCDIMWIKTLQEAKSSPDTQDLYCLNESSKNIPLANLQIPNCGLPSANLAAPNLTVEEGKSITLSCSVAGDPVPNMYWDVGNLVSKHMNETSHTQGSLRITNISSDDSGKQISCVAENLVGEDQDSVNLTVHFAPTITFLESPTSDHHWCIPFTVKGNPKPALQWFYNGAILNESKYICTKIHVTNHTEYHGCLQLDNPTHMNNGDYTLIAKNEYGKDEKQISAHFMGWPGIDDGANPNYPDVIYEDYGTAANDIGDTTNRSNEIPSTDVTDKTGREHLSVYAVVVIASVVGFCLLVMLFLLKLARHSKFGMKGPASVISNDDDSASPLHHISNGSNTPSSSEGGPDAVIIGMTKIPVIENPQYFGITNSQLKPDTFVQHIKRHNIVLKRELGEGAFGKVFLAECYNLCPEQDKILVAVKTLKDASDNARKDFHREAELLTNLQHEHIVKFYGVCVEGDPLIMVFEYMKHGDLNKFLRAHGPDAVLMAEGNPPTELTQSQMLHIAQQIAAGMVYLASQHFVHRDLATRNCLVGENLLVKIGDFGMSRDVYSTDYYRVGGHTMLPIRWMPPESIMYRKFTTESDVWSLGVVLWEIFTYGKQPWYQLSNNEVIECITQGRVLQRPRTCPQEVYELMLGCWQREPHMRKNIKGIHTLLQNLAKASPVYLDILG
T1 sequence (Q16620 32-822, species assumed): as above
Chain of TrkB intra-cellular domain (ICD) (Q16620 455-822 limits assumed): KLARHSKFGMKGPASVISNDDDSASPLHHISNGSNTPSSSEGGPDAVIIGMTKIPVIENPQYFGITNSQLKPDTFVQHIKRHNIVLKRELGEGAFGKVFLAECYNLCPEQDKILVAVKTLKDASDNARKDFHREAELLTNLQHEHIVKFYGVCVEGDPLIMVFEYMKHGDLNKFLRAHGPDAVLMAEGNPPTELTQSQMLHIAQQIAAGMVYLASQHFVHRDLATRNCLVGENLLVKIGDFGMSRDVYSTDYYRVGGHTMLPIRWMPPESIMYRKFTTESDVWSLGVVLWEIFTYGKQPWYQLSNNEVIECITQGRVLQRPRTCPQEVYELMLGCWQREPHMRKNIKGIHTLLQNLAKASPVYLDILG
Chain of TrkB extra-cellular domain (ECD) (Q16620 32-430 limits assumed): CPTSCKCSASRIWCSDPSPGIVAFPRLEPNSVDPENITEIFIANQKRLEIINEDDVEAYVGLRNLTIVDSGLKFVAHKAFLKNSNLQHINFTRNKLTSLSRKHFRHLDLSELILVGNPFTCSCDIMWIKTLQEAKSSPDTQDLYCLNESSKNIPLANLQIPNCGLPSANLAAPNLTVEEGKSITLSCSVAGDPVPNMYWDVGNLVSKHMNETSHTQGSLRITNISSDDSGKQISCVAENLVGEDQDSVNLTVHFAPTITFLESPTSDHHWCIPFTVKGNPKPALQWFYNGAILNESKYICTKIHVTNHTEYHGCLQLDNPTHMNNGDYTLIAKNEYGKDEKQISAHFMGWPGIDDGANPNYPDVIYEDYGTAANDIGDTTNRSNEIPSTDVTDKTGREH

Compound: 32-[^3H]3-deoxygedunin [[^3H]-deoxygedunin]
binding to TrkA (TrkA): did not bind to TrkA
binding to TrkB ICD [1]: not the intra-cellular domain (ICD)
binding to TrkB ECD [2]: progressively bound

TrkB dimerization (TrkB): notably promoted TrkB dimerization
Compound: CC(=O)O[C@@H]1CC2C(C)(C)[C@H](O)CC[C@]2(C)C2CC[C@@]3(C)[C@H](c4ccoc4)OC(=O)C4OC43[C@@]21C (stereo partly drawn) [alpha-dihydrogedunol (epoxy ring down), alphadihydrogedunol (epoxy ring down)]
protective effect (apoptosis inhibitory activity) (hippocampal neurons [3]): protective effect
protective effects on hippocampal neurons under OGD (hippocampal neurons [4]): potent protective effects
